Data as given in patent EP3884941A1, “INFLAMMASOME INHIBITORS AND USE THEREOF” (CENTRO DE INVESTIGACION PRINCIPE FELIPE, priority 2020, dated 2021).

Columns and labels:
[1] = tested on: NLRP3 activation in MSU-induced peritonitis; assay: MSU-induced peritonitis mouse model; format: in vivo, C57BL/6 mice; details: 10 mg/kg i.p. 30 min before MSU 2 mg/mouse i.p.
Procedure: We next evaluated the efficacy of MM01 in a murine MSU-induced peritonitis model. (Spalinger MR et al. Bio-protocol 2018; 8(5): e2754). Mono-sodium urate (MSU; InvivoGen) crystals are potent activators of the NLRP3 receptor. Upon activation, NLRP3 induces the formation of inflammasome complex, which lead to the production and release of mature IL-1β. In the early phase of peritonitis, the number of infiltrating neutrophils correlates with the production of mature IL-1β. MM01 was injected intraperitoneal 30 min before MSU crystals i.p. injection.
In vivo model was performed according to the protocol approved by the Institutional Animal Ethical Committee of CIPF. C57BL/6 mice were injected i.p. with 10 mg/kg MM01 or vehicle 30 min before i.p. injection of MSU (2 mg MSU crystals in 200 µl sterile PBS). After 6 h, mice were sacrificed, and peritoneal lavage with 5 ml of PBS was performed. Cytokine IL-1β secretion was determined by ELISA (#DY401 R&D Systems) and neutrophil content measured in ACVLAB Laboratorio Valencia.

[2] = target: T1, Recombinant caspase-1 (Homo sapiens, UniProt P29466); assay: caspase-1 in vitro activation assay (secondary screening); format: biochemical; details: preactivated recombinant caspase-1
T1 sequence (P29466 120-297 limits assumed): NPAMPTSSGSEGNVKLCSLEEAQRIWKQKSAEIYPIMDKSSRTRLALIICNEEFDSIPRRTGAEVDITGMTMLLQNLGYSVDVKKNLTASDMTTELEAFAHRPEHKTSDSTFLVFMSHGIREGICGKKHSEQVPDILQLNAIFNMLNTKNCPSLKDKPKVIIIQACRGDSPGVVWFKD
T1 sequence (P29466 317-404 limits assumed): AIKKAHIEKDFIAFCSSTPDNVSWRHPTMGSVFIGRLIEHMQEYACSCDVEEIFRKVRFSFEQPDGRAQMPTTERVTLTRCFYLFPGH
Procedure: Recombinant caspase-1 (50 nM) was incubated with the indicated concentrations of compounds for 20 min at RT in Assay Buffer. Then fluorogenic substrate Ac-WEHD-AFC (80 µM) was added, and activity was monitored in a Wallac Victor workstation. Data are reported as the percentage of inhibition compared with the absence of the inhibitor.

[3] = target: T2, Apoptosome (Homo sapiens, UniProt O14727); assay: Apoptosome activity assay; format: biochemical; details: reconstituted in vitro; MM01 5 µM (Figure 2C)
T2 sequence (O14727 1-1248): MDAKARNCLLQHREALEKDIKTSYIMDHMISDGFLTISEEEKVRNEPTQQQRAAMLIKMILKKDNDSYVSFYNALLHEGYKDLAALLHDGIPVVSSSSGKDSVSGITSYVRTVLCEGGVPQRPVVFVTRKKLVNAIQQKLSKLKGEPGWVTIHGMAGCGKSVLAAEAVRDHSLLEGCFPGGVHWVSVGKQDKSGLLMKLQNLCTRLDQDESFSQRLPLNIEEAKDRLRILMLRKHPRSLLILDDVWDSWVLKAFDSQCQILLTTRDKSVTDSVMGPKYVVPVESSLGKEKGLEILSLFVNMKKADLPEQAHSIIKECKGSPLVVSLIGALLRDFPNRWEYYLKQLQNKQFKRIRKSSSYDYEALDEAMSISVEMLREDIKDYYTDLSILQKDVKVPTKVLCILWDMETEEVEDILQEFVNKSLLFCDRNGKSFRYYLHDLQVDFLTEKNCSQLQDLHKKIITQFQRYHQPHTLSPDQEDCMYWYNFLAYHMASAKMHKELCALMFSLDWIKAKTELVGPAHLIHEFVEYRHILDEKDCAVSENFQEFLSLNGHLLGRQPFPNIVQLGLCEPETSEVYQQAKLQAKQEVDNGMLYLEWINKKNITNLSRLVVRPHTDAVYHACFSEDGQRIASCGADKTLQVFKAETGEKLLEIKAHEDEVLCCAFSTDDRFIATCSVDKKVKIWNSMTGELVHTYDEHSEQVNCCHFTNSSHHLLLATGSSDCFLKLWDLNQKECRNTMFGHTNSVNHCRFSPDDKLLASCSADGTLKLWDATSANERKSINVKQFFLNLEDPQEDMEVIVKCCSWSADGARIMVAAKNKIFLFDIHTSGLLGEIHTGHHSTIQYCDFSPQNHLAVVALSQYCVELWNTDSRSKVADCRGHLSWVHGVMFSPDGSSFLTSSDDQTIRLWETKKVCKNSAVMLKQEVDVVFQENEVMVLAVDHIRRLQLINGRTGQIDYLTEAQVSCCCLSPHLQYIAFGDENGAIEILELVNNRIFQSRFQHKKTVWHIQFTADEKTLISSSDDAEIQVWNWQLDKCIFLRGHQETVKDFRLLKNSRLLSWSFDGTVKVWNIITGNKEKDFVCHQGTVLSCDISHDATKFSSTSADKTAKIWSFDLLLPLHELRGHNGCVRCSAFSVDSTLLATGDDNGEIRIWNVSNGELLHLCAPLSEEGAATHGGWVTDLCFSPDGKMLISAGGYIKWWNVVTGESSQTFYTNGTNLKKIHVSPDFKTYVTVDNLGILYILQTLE
Procedure: Apoptosome was reconstituted by incubating rApaf-1 (100 nM) with vehicle (DMSO) or compounds in assay buffer (20 mM HEPES, 10 mMKCI, 1.5 mM MgCI2, 1 mM EDTA, 1 mM EGTA, 1 mM DTT, 0.1 mM PMSF) at 30°C for 30 min. Next, 100 µM dATP and 100 nM Cytc were added and incubated for additional 40 min. Then, caspase-9 (100 nM) was added, and activity was monitored by the Ac-LEHD-afc substrate (50 µM) using a Victor 2 spectrofluorimeter.

Q: With C=CCN1C(=O)/C(=C2/C(=O)Nc3ccccc32)SC1=S [MM01] as the compound, how does the neutrophil recruitment ([1]; peritoneal cavity after 6 h) read?
A: efficiently suppressed

Q: And the “MSU injection-induced IL-1β production” value ([1]; peritoneal lavage after 6 h, ELISA)?
A: efficiently suppressed

Q: And the caspase-1 activity [2]?
A: do not act on

Q: And the “inhibition of the apoptosome” value [3]?
A: No inhibition
